Molecules are shown by their SMILES. Where only a bound is given, the exact number is not on record here.

Assay [1] is described as follows: Inhibition of Tel-fused LCK expressed in mouse BAF3 cells.
A short description of assay [2]: Inhibition of Tel-fused KDR expressed in mouse BAF3 cells.
A short description of assay [3]: Inhibition of Tel-fused SRC expressed in mouse BAF3 cells.
The nature of assay [4]: Inhibition of Tel-fused LYN expressed in mouse BAF3 cells.

For `CCN(CC)CCCCNc1cc(-n2c(Nc3cc(C(=O)Nc4cccc(C)c4)ccc3C)nc3ccccc32)ncn1` [3-(1-(6-(4-(diethylamino)butylamino)pyrimidin-4-yl)-1H-benzo[d]imidazol-2-ylamino)-4-methyl-N-m-tolylbenzamide], the IC50 in assay [1] turned out to be 406 nM; in assay [2] it was 1360 nM; in assay [3], 1060 nM; in assay [4], 1320 nM.

`Cc1ccc(C(=O)Nc2cccc(C(F)(F)F)c2)cc1Nc1nc2ccccc2n1-c1cc(NCCC#N)ncn1` [3-(1-(6-(2-cyanoethylamino)pyrimidin-4-yl)-1H-benzo[d]imidazol-2-ylamino)-4-methyl-N-(3-(trifluoromethyl)phenyl)benzamide]: the half-maximal inhibitory concentration (IC50) in assay [1] was 275 nM; in assay [2] it was 245 nM; in assay [3], 1220 nM; in assay [4] it was 468 nM.

Consider `CCN1CCN(c2cc(C(=O)Nc3ccc(C)c(Nc4nc5ccccc5n4-c4cc(N)ncn4)c3)cc(C(F)(F)F)c2)CC1` [N-(3-(1-(6-aminopyrimidin-4-yl)-1H-benzo[d]imidazol-2-ylamino)-4-methylphenyl)-3-(4-ethylpiperazin-1-yl)-5-(trifluoromethyl)benzamide], for which the IC50 in assay [1] is 4 nM; in assay [2] it was 5 nM; in assay [3] it was 57 nM; in assay [4], 9 nM.

Regarding `Cc1ccc(C(=O)Nc2cccc(OC(F)F)c2)cc1Nc1nc2ccccc2n1-c1cc(N)ncn1` [3-(1-(6-aminopyrimidin-4-yl)-1H-benzo[d]imidazol-2-ylamino)-N-(3-(difluoromethoxy)phenyl)-4-methylbenzamide], the IC50 in assay [1] was 47 nM; in assay [2], 92 nM; in assay [3], above 10000 nM; in assay [4], 100 nM.

In the case of `Cc1ccc(C(=O)Nc2cccc(C(F)(F)F)c2)cc1Nc1nc2ccccc2n1-c1ncnc(NCCCN2CCN(C)CC2)n1` [4-methyl-3-(1-(4-(3-(4-methylpiperazin-1-yl)propylamino)-1,3,5-triazin-2-yl)-1H-benzo[d]imidazol-2-ylamino)-N-(3-(trifluoromethyl)phenyl)benzamide], the IC50 in assay [1] worked out at 20 nM; in assay [2], 133 nM; in assay [3] it was 117 nM; in assay [4], 43 nM.

As to `Cc1ccc(NC(=O)c2cc(CN3CCN(C)CC3)n(C(C)(C)C)n2)cc1Nc1nc2ccccc2n1-c1cc(N)ncn1` [N-(3-(1-(6-aminopyrimidin-4-yl)-1H-benzo[d]imidazol-2-ylamino)-4-methylphenyl)-1-tert-butyl-5-((4-methylpiperazin-1-yl)methyl)-1H-pyrazole-3-carboxamide], the IC50 worked out at 18 nM in assay [1], 63 nM in assay [2], 249 nM in assay [3] and 88 nM in assay [4].

In the case of `Cc1ccc(NC(=O)c2cccc(C(F)(F)F)c2)cc1Nc1nc2ccccc2n1-c1cc(NCCCN2CCN(C)CC2)ncn1` [N-(4-methyl-3-(1-(6-(3-(4-methylpiperazin-1-yl)propylamino)pyrimidin-4-yl)-1H-benzo[d]imidazol-2-ylamino)phenyl)-3-(trifluoromethyl)benzamide], the concentration for half-maximal inhibition (IC50) in assay [1] was 25 nM; in assay [2] it was 582 nM; in assay [3], 601 nM; in assay [4] it was 149 nM.

Take `Cc1ccc(NC(=O)c2cc(OC3CCN(C)CC3)cc(C(F)(F)F)c2)cc1Nc1nc2ccccc2n1-c1cc(N)ncn1` [N-(3-(1-(6-aminopyrimidin-4-yl)-1H-benzo[d]imidazol-2-ylamino)-4-methylphenyl)-3-(1-methylpiperidin-4-yloxy)-5-(trifluoromethyl)benzamide]: the IC50 turned out to be 7 nM in assay [1], 66 nM in assay [2], 39 nM in assay [3] and 5 nM in assay [4].

Consider `Cc1ccc(C(=O)Nc2cccc(C(F)(F)F)c2)cc1Nc1nc2ccccc2n1-c1ncnc(N)c1C` [3-(1-(6-amino-5-methylpyrimidin-4-yl)-1H-benzo[d]imidazol-2-ylamino)-4-methyl-N-(3-(trifluoromethyl)phenyl)benzamide], for which the IC50 in assay [1] was 4460 nM; in assay [2] it was 8180 nM; in assay [3] it was above 10000 nM; in assay [4], 8010 nM.

`CCN1CCN(Cc2ccc(C(=O)Nc3ccc(C)c(Nc4nc5ccccc5n4-c4cc(N)ncn4)c3)cc2Cl)CC1` [N-(3-(1-(6-aminopyrimidin-4-yl)-1H-benzo[d]imidazol-2-ylamino)-4-methylphenyl)-3-chloro-4-((4-ethylpiperazin-1-yl)methyl)benzamide]: the IC50 in assay [1] turned out to be 5 nM; in assay [2], 30 nM; in assay [3] it was 47 nM; in assay [4], 10 nM.

As for `Cc1ccc(NC(=O)c2cccc(C(F)(F)F)c2)cc1Nc1nc2ccccc2n1-c1cc(NCCN2CCN(C)CC2)ncn1` [N-(4-methyl-3-(1-(6-(2-(4-methylpiperazin-1-yl)ethylamino)pyrimidin-4-yl)-1H-benzo[d]imidazol-2-ylamino)phenyl)-3-(trifluoromethyl)benzamide], the IC50 in assay [1] is 56 nM; in assay [2], 605 nM; in assay [3], 918 nM; in assay [4] it was 204 nM.

As for `Cc1cccc(C(=O)Nc2ccc(C)c(Nc3nc4ccccc4n3-c3cc(N)ncn3)c2)c1` [N-(3-(1-(6-aminopyrimidin-4-yl)-1H-benzo[d]imidazol-2-ylamino)-4-methylphenyl)-3-methylbenzamide], the IC50 turned out to be 32 nM in assay [1], 280 nM in assay [2], 490 nM in assay [3] and 82 nM in assay [4].

In the case of `Cc1ccc(NC(=O)c2cccc(C(F)(F)F)c2)cc1Nc1nc2ccccc2n1-c1cc(NC2CCN(C)CC2)ncn1` [N-(4-methyl-3-(1-(6-(1-methylpiperidin-4-ylamino)pyrimidin-4-yl)-1H-benzo[d]imidazol-2-ylamino)phenyl)-3-(trifluoromethyl)benzamide], the IC50 in assay [1] was found to be 881 nM; in assay [2], 1710 nM; in assay [3], 1380 nM; in assay [4], 1420 nM.

Consider `COc1cccc(NC(=O)c2ccc(C)c(Nc3nc4ccccc4n3-c3cc(N)ncn3)c2)c1` [3-(1-(6-aminopyrimidin-4-yl)-1H-benzo[d]imidazol-2-ylamino)-N-(3-methoxyphenyl)-4-methylbenzamide], for which the concentration for half-maximal inhibition (IC50) in assay [1] is 157 nM; in assay [2], 516 nM; in assay [3], 4390 nM; in assay [4], 437 nM.

As to `Cc1cn(-c2cc(NC(=O)c3ccc(C)c(Nc4nc5ccccc5n4-c4cc(N)ncn4)c3)cc(C(F)(F)F)c2)cn1` [3-(1-(6-aminopyrimidin-4-yl)-1H-benzo[d]imidazol-2-ylamino)-4-methyl-N-(3-(4-methyl-1H-imidazol-1-yl)-5-(trifluoromethyl)phenyl)benzamide], the 50% inhibitory concentration (IC50) in assay [1] was determined as 14 nM; in assay [2] it was 20 nM; in assay [3] it was 107 nM; in assay [4] it was 28 nM.

As for `Cc1ccc(C(=O)Nc2ccccc2)cc1Nc1nc2ccccc2n1-c1cc(N)ncn1` [3-(1-(6-aminopyrimidin-4-yl)-1H-benzo[d]imidazol-2-ylamino)-4-methyl-N-phenylbenzamide], the IC50 in assay [1] stood at 2280 nM; in assay [2], 8820 nM; in assay [3] it was 6170 nM; in assay [4] it was 5510 nM.

By IC50 is commonly meant the concentration at which inhibition is half-maximal. A lower IC50 goes with greater potency.

The record behind these values is BindingDB's records for doi:10.1016/j.bmcl.2009.09.123 (Genomics Institute of The Novartis Research Foundation, 2009).
